According to patent US7022737B2, “Manipulating nitrosative stress to kill pathologic microbes, pathologic helminths and pathologically proliferating cells or to upregulate nitrosative stress defenses” (Duke University, priority 1996, dated 2006):
Structures can show the parent of a compound that is named as a salt.

Columns and labels:
[1] = tested on: mixed flora and gram-negativerods; experiment: Diabetic patient with infected skin ulcer; format: in vivo; conditions: topical cream with S-nitrosoglutathione, oxidized glutathione and dinitrophenacyl glutathione
Source text: A patient with diabetes develops a skin ulcer on the lower aspect of their left leg. Cultures grow mixed flora and gram-negativerods. A topical cream is applied that contains S-nitrosoglutathione, oxidized glutathione and the glutathione S-conjugate dinitrophenacyl glutathione.

restenosis [2] = experiment: Patients with coronary stenosis treated to prevent restenosis; format: in vivo
Source text: BSO therapy is continued for one week.
A person with blue eyes and gray hair presents with chest pain. […] The patient undergoes balloon angioplasty and placement of a Palmaz-Schatz stent, which is P^32-implanted and coated with a cyclodextran polymer to which BSO is attached by an ester linkage.
A patient similar to the one described above undergoes balloon angioplasty and placement of a Palmaz-Schatz stent which is coated with cyclodextran polymer to which ethyl maleate is attached by an ester linkage. […]
A person with restenosis six months post angioplasty has a Palmaz-Schatz stent placed. The stent is coated with a porous polymer containing 10% of the siderophore ferrioxamine B and 0.1% each of interleukin-1 and interferon-gamma. The latter agents induce the local expression of the inducible isoform of nitric oxide synthase. […]

Salmonella = experiment: Patients with Salmonella septicemia or gastroenteritis; format: in vivo; conditions: septicemia; sodium nitrate 200 mg/kg i.v. twice a day and ethacrynic acid 50 mg four times a day p.o.
E. coli = experiment: Patients with E. coli septicemia; format: in vivo
Procedure: A person with fever, mild hypotension, and moderate hematuria has blood and urine cultures that are positive for E. coli. They are given a diagnosis of E. coli septicemia and urinary tract infection. […]
A person with E. coli sepsis presents feeling nauseated and gravely ill. However, their blood pressure is stable. They receive a standard regimen of IV antibiotics, including ampicillin and gentamicin as well as the siderophore ferrioxamine B at a dose of 10 mg/kg.
A person with E. coli sepsis presents with a blood pressure of 80/50 mm Hg. Broad spectrum antibiotics are initiated including ampicillin and gentamicin. […] The patient then receives an intravenous dose of nitrosated chloramphenicol, 12.5 mg four times/day IV together with methylene blue IV at a dose of 5 mg/kg as well as fluid support.

[3] = tested on: Mycobacterium tuberculosis; conditions: in vivo
[4] = tested on: wild type E. coli and glutathione deficient E. coli; experiment: Bacterial growth (O.D. 600 nm) with nitrosating agent; format: cell-based
Procedure: In a first experiment, six runs were carried out. In three of the runs, wild type E. coli were incubated in bacterial growth medium. In the other three runs, E. coli lacking a gene essential for glutathione production (in particular, lacking a gene expressing gamma-glutamylcysteine synthetase, hereinafter glutathione deficient E. coli) were incubated in the bacterial growth medium. In one run, for each of the wild type E. coli and the glutathione deficient E. coli, no nitrosating agent was employed. In one run, for each of the wild type E. coli and the glutathione deficient E. coli, 0.5 mM S-nitrosocysteine (a nitrosating agent) was added after two hours. In one run, for each of the wild type E. coli and the glutathione deficient E. coli, 0.2 mM S-nitrosocysteine was added initially and 0.5 mM S-nitrosocysteine was added at the two hour mark. In each run, starting at the two hour mark and every 15 or 30 minutes thereafter, bacterial cell density (i.e., growth) was measured. […]
In a second experiment, six runs were carried out the same as in the first experiment. In this case, the results are shown in FIG. 2 where bacterial growth (measured as optical density (O.D.) 600 nm) is plotted on a log axis versus time (after two hours) and where “wt” and the plus and minus sign mean the same as in FIG. 1 and “gsh^−” means glutathione deficient E. coli. […]

[5] = tested on: benign prostatic hypertrophy; experiment: Patients with benign prostatic hypertrophy; format: in vivo; conditions: prostate-implanted polymer pellets releasing each agent at 1 μmol/hr
Source text: A person presents with a history of urinary hesitancy and multiple awakenings during the night. They are given a diagnosis of benign prostatic hypertrophy. Under stereotactic guidance, the patient's enlarged prostate gland is implanted with several porus polymer pellets designed to slowly release L-buthionine-S-sulfoximine (1 μmol/hr) and S-nitrosocysteine (1 μmol/hr). […] They then have nearly normal urine flow and usually wakes no more than once per night.
A similar patient with benign prostatic hypertrophy and very marked enlargement of their prostate is treated with NO-substituted finasteride (NO-substituted Proscar; 5 mg/day). NO-substitution is accomplished by replacement of the tert-butyl amine moiety of finasteride with S-nitroso-β-thio-tert-butyl amine.
A person with benign prostatic hypertrophy is treated with Finisteride (Proscar: 5 mg/day) and oral buthionine-S-sulfoximine at a dose of 10 mmol/kg four time/day.

restenosis [6] = experiment: Patients with coronary stenosis treated to prevent restenosis; format: in vivo; remark: listed apart in the source
[7] = biological target: T1, gamma-glutamylcysteinyl synthetase (gamma-GCS) (Rattus norvegicus, UniProt P19468); conditions: mammalian systems, literature; cited from earlier work
T1 sequence (P19468 1-637): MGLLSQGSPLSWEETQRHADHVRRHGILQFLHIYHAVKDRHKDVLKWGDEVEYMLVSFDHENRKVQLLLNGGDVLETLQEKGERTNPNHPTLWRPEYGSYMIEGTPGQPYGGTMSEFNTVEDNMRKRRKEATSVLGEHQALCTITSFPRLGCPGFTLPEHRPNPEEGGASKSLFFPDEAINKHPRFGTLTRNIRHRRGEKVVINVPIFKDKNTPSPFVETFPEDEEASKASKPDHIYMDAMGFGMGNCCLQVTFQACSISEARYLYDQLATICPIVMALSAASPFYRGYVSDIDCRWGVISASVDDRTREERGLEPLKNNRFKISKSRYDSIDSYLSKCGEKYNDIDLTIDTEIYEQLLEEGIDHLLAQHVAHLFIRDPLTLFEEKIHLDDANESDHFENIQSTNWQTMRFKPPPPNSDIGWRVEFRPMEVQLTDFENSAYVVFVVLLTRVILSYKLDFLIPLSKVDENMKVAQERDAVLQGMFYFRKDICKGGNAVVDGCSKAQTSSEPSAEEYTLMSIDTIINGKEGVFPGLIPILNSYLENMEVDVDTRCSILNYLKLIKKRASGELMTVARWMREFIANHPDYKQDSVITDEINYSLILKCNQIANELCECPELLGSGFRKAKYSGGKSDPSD
T1 sequence (P48508 1-274 partner): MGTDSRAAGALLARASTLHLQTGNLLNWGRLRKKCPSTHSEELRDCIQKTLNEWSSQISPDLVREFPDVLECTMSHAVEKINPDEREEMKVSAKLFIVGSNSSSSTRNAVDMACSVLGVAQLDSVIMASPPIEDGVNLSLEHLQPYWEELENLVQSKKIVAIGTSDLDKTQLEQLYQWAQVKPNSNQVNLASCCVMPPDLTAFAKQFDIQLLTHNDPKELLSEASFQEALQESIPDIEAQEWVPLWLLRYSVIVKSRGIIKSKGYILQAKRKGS

glutamine synthetase = conditions: mammalian systems, literature; cited from earlier work
oral thrush = experiment: Patients with oral thrush; format: in vivo; conditions: 5 cc of 10 mM solution
Procedure: An immunocompromised person who is status-post recent chemotherapy develops oral thrush.
A person with leukemia develops oral thrush and is given 2 cc of 50 mM S-nitrosoglutathione, swish and spit, three times/day.
An immunocompromised person with HIV and a low CD4 count develops oral thrush. They are given 5 cc of a solution of 10 mM nitrate.

[8] = stent coated with porous polymer containing 10% ferrioxamine B and 0.1% each of interleukin-1 and interferon-gamma
[9] = 32P-implanted stent, S-nitrosocysteine and ethacrynic acid 50–200 mg twice a day p.o.

## dinitrophenacyl glutathione
[1]
  clinical outcome: culture of the ulcer becomes sterile over three days

## interleukin-1
Restenosis [2]; [8]
  clinical outcome: restenosis does not occur

## O=[N+]([O-])[O-].[Na+] [sodium nitrate]
Salmonella
  clinical outcome: symptoms resolve in two days

## interferon-gamma: cytokine inducing inducible nitric oxide synthase
Restenosis [2]; [8]
  clinical outcome: restenosis does not occur

## CC(C[C@H](N)C(=O)O)SN=O (stereo partly drawn) [S-nitroso-gamma-methyl-L-homocysteine]
E. coli; septicemia and urinary tract infection, α-ethyl BSO 4 mmol/kg four times a day p.o., S-nitroso-gamma-methyl-L-homocysteine 50 μg/kg i.v., gentamicin
  clinical outcome: symptoms resolve and blood and urine cultures are negative for E. coli after two weeks

## CN(C)c1ccc2nc3ccc(=[N+](C)C)cc-3sc2c1 [methylene blue]
E. coli; nitrosated chloramphenicol 12.5 mg four times/day IV with methylene blue IV 5 mg/kg and fluid support
  time to restored blood pressure: 24 h

## CC(=O)N([O-])CCCCCNC(=O)CCC(=O)N([O-])CCCCCNC(=O)CCC(=O)N([O-])CCCCCN.[Fe+3] [ferrioxamine B]
E. coli; 10 mg/kg with IV ampicillin and gentamicin
  clinical outcome: does not develop the clinical syndrome of hypotension and organ failure
Restenosis [2]; [8]
  clinical outcome: restenosis does not occur

## CC[C@@H](CO)NCCN[C@@H](CC)CO [ethambutol]
[3]
  adverse effects: loss of color vision and gastrointestinal intolerance

## N[C@@H](CSN=O)C(=O)O [S-nitrosocysteine]
[4]; 0.2 mM pretreatment, 0.5 mM at two hours
  effect of pretreatment on later treatment: Induces Resistance to Later Treatment with Nitrosating Agent
[4]; 0.5 mM added at two hours, with or without 0.2 mM pretreatment
  bacterial growth: reduces rate of bacterial growth
E. coli; 100 nmol/kg i.v. alone
  clinical outcome: partial remission in their disease accompanied by mild hypotension
E. coli; S-nitrosocysteine continued plus desferoximine 1 gm then 0.5 gm every 4 hr for two days
  clinical outcome: relief of hypotension and complete resolution of septicemia
[5]
  clinical outcome: symptoms improve over a period of three weeks
Restenosis [6]; [9]
  clinical outcome: symptoms improve
Restenosis [6]; BSO-releasing polymer stent and S-nitrosocysteine 100 nmol/kg intracoronary infusion
  clinical outcome: follow-up angiogram shows no restenosis
Restenosis [6]; S-nitrosocysteine 100 nmol/kg six times a day for one week intracoronary, 32P-implanted stent
  clinical outcome: successfully prevents restenosis

## N[C@@H](Cc1ccc(N(CCCl)CCCl)cc1)C(=O)O [melphalan]
Restenosis [2]; stent coated with ONO-substituted polymer with 10% melphalan attached
  clinical outcome: clinical restenosis does not occur
[3]; po
  clinical outcome: symptoms resolve

## CCC(N)(CCS(C)(=N)=O)C(=O)O (racemic) [α-ethyl-DL-methionine-SR-sulfoximine]
[7]
  inhibition of gamma-GCS: did not significantly inhibit
Glutamine synthetase
  inhibition of glutamine synthetase: inhibited

## O=[N+]([O-])O [nitrate]
Oral thrush
  clinical outcome: thrush resolves

## C[C@@H]1[C@H](O)[C@@H](C)/C=C/C=C/C=C/C=C/C=C/C=C/C=C/[C@H](O[C@@H]2O[C@H](C)[C@@H](O)[C@H](N)[C@@H]2O)C[C@@H]2O[C@](O)(C[C@@H](O)C[C@@H](O)[C@H](O)CC[C@@H](O)C[C@@H](O)CC(=O)O[C@H]1C)C[C@H](O)[C@H]2C(=O)O [amphotericin B]
Histoplasma capsulatum; 1 mg/day i.v., after one week
  adverse effects: elevated blood urea nitrogen level and other evidence of renal failure
Histoplasma capsulatum; dose reduced to 0.5 mg/day
  clinical outcome: no resolution of disease

## C=C(CC)C(=O)c1ccc(OCC(=O)O)c(Cl)c1Cl [ethacrynic acid]
Salmonella
  clinical outcome: symptoms resolve in two days
Restenosis [6]; [9]
  clinical outcome: symptoms improve

## CS(=N)(=O)CC[C@H](N)C(=O)O (stereo partly shown) [methionine sulfoximine]
[7]
  inhibition of gamma-GCS: potently inhibits
Glutamine synthetase
  inhibition of glutamine synthetase: potently inhibits

## CCC[S@](=N)(=O)CCC(N)C(=O)O (mixture of isomers) [DL-prothionine-SR-sulfoximine]
[7]
  inhibition of gamma-GCS: inhibited
Glutamine synthetase
  inhibition of glutamine synthetase: did not significantly inhibit

## CCOC(=O)/C=C\C(=O)OCC [ethyl maleate]
Restenosis [2]; stent coated with cyclodextran polymer with ethyl maleate attached by ester linkage
  clinical outcome: clinical restenosis does not occur
